One data set addresses Cytochrome P450 3A4 (Homo sapiens, UniProt P08684). As to the kind of experiment: Inhibition of CYP3A4 (unknown origin). It counts as ADME.
For a further data set, the target named is Cytochrome P450 2C9 (Homo sapiens, UniProt P11712). The data set can be described thus: Inhibition of CYP2C9 (unknown origin). It counts as ADME.
A short description of data set [1]: Kinetic aqueous solubility of the compound in pH 6.8. Conditions: read-out: Kinetic_solubility. It counts as physicochemical.
The nature of data set [2]: Protein binding in human plasma assessed as unbound fraction at 2 uM by rapid equilibrium dialysis method. It counts as ADME, cell-free.
Data set [3] in a line: Kinetic solubility of the compound at pH 1.5 by shake flask method. It counts as physicochemical. Conditions: buffer, read-out: Kinetic_solubility.
The nature of data set [4]: Protein binding in rat plasma assessed as unbound fraction at 2 uM by rapid equilibrium dialysis method. It counts as ADME, cell-free.
A short description of data set [5]: Lipophilicity, logD of the compound at pH 7.6 by shake flask assay. It counts as physicochemical. Particulars: buffer.
A short description of data set [6]: Dissociation constant, pKa of the compound. It counts as physicochemical.
The target of data set [7] is T1, Tyrosine-protein kinase BTK (Homo sapiens, UniProt Q06187). As to the kind of experiment: Inhibition of human BTK using fluorescein-labeled polyGAT peptide as substrate incubated for 30 mins by FRET assay.
Data set [8] in a line: Kinetic solubility of the compound at pH 7.5 by shake flask method. It counts as physicochemical. Conditions: buffer, read-out: Kinetic_solubility.
Data set [9] in a line: Half life in Beagle dog at 5 mg/kg, po. It counts as ADME, organism-based, Canis lupus familiaris. Particulars: in vivo.
Data set [10] in a line: Half life in Sprague-Dawley rat at 5 mg/kg, po. It counts as ADME, organism-based. Conditions: in vivo.
Data set [11] is described as follows: Kinetic aqueous solubility of the compound in pH 3. It counts as physicochemical. Particulars: read-out: Kinetic_solubility.
In data set [12] the target is T1, Tyrosine-protein kinase BTK. The data set can be described thus: Inhibition of BTK phosphorylation in human whole blood assessed as reduction in BTK phosphorylation incubated for 30 mins. It counts as tissue-based.
The nature of data set [13]: Oral bioavailability in Sprague-Dawley rat at 5 mg/kg. It counts as ADME, organism-based. Particulars: in vivo.
Data set [14] is described as follows: Volume of distribution at steady state in Sprague-Dawley rat at 1 mg/kg, iv. It counts as ADME, organism-based. Particulars: in vivo, read-out: Vdss.
Data set [15] is described as follows: Solubility of the compound in FeSIF at pH 5.9. It counts as physicochemical.
A short description of data set [16]: Oral bioavailability in Beagle dog at 5 mg/kg. It counts as ADME, organism-based, Canis lupus familiaris. Conditions: in vivo.
The nature of data set [17]: Clearance in Sprague-Dawley rat assessed as hepatic blood flow at 1 mg/kg, iv. Particulars: in vivo. It counts as ADME, organism-based, Liver.
A short description of data set [18]: Solubility of the compound in simulated gastric fluid at pH 1.6. It counts as physicochemical.
The nature of data set [19]: Solubility of the compound in FaSIF at pH 6.5. It counts as physicochemical.
The nature of data set [20]: AUC in Beagle dog at 5 mg/kg, po. It counts as ADME, organism-based, Canis lupus familiaris. The arrangement: dose 5 mg/kg. Particulars: in vivo.
Data set [21] in a line: Clearance in Beagle dog at 1 mg/kg, iv. It counts as ADME, organism-based, Canis lupus familiaris. Particulars: in vivo.
Data set [22] in a line: Cmax in Beagle dog at 5 mg/kg, po. It counts as ADME, organism-based, Canis lupus familiaris. Also on record: route oral, dose 5 mg/kg. Conditions: in vivo.
Data set [23] is described as follows: Clearance in Beagle dog assessed as hepatic blood flow at 1 mg/kg, iv. It counts as ADME, organism-based, Canis lupus familiaris, Liver. Conditions: in vivo.
A short description of data set [24]: Volume of distribution at steady state in Beagle dog at 1 mg/kg, iv. It counts as ADME, organism-based, Canis lupus familiaris. Particulars: in vivo, read-out: Vdss.
Data set [25] can be described thus: Cmax in Sprague-Dawley rat at 5 mg/kg, po. It counts as ADME, organism-based. Also on record: route oral, dose 5 mg/kg. Conditions: in vivo.
Data set [26] in a line: AUC in Sprague-Dawley rat at 5 mg/kg, po. It counts as ADME, organism-based. Also on record: dose 5 mg/kg. Particulars: in vivo.
A short description of data set [27]: Clearance in Sprague-Dawley rat at 1 mg/kg, iv. It counts as ADME, organism-based. Conditions: in vivo.

Data on 18 molecules can be found in ChEMBL document CHEMBL5042486, “Discovery and Preclinical Characterization of BIIB091, a Reversible, Selective BTK Inhibitor for the Treatment of Multiple Sclerosis” (J Med Chem, 2022).

≈ marks a conversion by molar mass, not a printed value.

Chain of Cytochrome P450 3A4 (P08684 whole entry): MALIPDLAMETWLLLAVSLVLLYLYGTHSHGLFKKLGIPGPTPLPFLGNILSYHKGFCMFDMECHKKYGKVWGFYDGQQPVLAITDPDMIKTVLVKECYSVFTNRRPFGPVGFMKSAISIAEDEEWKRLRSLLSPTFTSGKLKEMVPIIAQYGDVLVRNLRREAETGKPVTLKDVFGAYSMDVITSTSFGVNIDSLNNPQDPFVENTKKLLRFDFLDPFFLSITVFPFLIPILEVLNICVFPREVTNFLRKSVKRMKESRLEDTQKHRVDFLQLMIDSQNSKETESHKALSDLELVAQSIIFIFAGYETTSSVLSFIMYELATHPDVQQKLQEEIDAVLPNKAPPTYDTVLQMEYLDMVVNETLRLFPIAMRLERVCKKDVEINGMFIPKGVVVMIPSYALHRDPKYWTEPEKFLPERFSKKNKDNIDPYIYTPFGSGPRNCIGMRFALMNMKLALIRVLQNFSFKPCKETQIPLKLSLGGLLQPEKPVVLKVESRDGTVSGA
T1 sequence (Q06187 whole entry): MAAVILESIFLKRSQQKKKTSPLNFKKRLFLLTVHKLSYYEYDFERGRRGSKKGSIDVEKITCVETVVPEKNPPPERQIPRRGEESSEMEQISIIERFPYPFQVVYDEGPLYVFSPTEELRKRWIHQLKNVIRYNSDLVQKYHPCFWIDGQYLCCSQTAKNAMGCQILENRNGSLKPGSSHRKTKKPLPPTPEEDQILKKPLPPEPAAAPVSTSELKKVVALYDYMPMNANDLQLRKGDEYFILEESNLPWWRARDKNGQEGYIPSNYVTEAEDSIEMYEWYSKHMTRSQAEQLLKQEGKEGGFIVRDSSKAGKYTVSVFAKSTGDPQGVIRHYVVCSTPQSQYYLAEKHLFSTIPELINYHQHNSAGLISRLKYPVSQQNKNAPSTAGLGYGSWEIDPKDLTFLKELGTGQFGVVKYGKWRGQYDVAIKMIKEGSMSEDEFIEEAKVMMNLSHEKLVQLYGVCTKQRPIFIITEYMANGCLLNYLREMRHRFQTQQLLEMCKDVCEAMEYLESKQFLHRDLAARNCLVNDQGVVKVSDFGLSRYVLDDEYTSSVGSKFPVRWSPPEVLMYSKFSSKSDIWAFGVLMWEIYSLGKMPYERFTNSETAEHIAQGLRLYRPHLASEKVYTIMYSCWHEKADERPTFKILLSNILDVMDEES
Chain of Cytochrome P450 2C9 (P11712 whole entry): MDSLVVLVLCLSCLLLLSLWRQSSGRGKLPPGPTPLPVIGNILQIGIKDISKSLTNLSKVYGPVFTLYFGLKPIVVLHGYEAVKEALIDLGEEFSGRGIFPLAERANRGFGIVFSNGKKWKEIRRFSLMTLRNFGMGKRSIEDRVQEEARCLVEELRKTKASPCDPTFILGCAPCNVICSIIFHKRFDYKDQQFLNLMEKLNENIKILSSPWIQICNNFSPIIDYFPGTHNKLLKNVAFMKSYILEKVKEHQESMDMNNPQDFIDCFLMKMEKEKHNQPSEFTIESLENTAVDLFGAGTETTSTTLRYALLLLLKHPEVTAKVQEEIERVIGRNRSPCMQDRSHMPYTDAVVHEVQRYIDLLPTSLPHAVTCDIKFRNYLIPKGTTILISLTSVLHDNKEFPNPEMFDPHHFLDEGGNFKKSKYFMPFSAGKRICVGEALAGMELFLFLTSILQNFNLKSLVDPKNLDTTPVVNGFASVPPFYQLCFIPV

As for `Cn1cc(Nc2nccc(-c3ccc4c(c3)CCCC[C@H]4NC(=O)c3nnc(C(C)(C)C)o3)n2)cn1`, the half-maximal inhibitory concentration (IC50) against Cytochrome P450 3A4 was > 10000 nM; on Cytochrome P450 2C9 it was 4000 nM. For the same molecule, the figures for the solubility kinetic in data set [1] and in data set [3] were < 20 µg/mL and > 50 µg/mL, respectively. The fraction unbound at 2 µM was determined as 0.041 in data set [2] and 0.008 in data set [4]. In data set [5], this molecule registered a logD of 2.3.
`COCCN1CC[C@@H](NC(=O)c2cn(C(C)(C)C)nn2)c2ccc(-c3ccnc(Nc4cnn(C)c4)n3)cc2C1`: the solubility kinetic in [1] and in data set [3] was > 50 µg/mL in each case. Further, the fraction unbound at 2 µM in data set [2] was found to be 0.1. Moreover, in [6], the pKa was 3.1. In addition, the logD in [5] was 2.9.
`CN1CCc2cc(-c3ccnc(Nc4cnn(C)c4)n3)ccc2[C@H](NC(=O)c2cn(C(C)(C)C)nn2)C1`: in data set [2], the fraction unbound at 2 µM turned out to be 0.07. The solubility kinetic in data set [3] was > 50 µg/mL. The molecule also displayed a logD in data set [5] of 2.9.
As for `C=CC(=O)Nc1cccc(Oc2nc(Nc3ccc(N4CCN(C)CC4)cc3)nc3ccoc23)c1` [POSELTINIB], in [7], the 50% inhibitory concentration (IC50) stood at 1 nM.
Take `Cc1cc(-c2ccnc(Nc3cnn(C)c3)n2)ccc1CNC(=O)N1CC(OC(C)C)C1`: the solubility kinetic in [8] is > 30 µg/mL; in data set [1] it was < 30 µg/mL; in data set [3], < 30 µg/mL; in [11], > 30 µg/mL. For the same molecule, the half-life in [9] was 2.1 h; in data set [10], 1.2 h. Also, the free fraction (fraction unbound) at 2 µM in data set [2] stood at 0.06. The molecule also yielded a logD in [5] of 2.7.
Regarding `Cc1c(-c2c(F)cc(C(N)=O)c3[nH]c4c(c23)CC[C@H](C(C)(C)O)C4)cccc1-n1c(=O)c2cccc(F)c2n(C)c1=O` [BMS-986142], the IC50 was 110 nM in data set [12] and 1 nM in [7].
On to `Cc1c(NC(=O)c2cc3c(s2)CCCC3)cccc1-c1cn(C)c(=O)c(Nc2ccc(C3CN(C)CC(=O)N3C)cc2)n1` (stereo unspecified), for which the results for the IC50 in data set [12] and in data set [7] were 150 nM and 1 nM, respectively.
As to `Cn1cc(Nc2nccc(-c3ccc4c(c3)CNCC[C@H]4NC(=O)c3cn(C(C)(C)C)nn3)n2)cn1`, the solubility kinetic in [1] and in data set [3] was > 50 µg/mL throughout. The unbound share (fraction unbound) at 2 µM in data set [2] is 0.18. In data set [5], the logD stood at 2.9.
As to `Cc1cc(-c2ccnc(Nc3cnn(C)c3)n2)c(F)cc1CNC(=O)N1CC(OC(C)C)C1`, the IC50 in data set [7] is > 10000 nM.
As to `CC(C)OC1CN(C(=O)NCc2ccc(-c3ccnc(Nc4cnn(C)c4)n3)cc2Cl)C1`, the solubility kinetic in [1] and in data set [11] was < 30 µg/mL throughout.
With `Cn1cc(Nc2nccc(-c3ccc4c(c3)CCCC[C@H]4NC(=O)c3nc(C(C)(C)C)no3)n2)cn1`, the concentration for half-maximal inhibition (IC50) was 2600 nM at Cytochrome P450 3A4 and 400 nM against Cytochrome P450 2C9. Further, the solubility kinetic is < 20 µg/mL in [1] and > 50 µg/mL in data set [3]. Also, the values for the fraction unbound at 2 µM in data set [2] and in [4] were 0.008 and 0.009, respectively. The logD in data set [5] came to 2.8.
In the case of `Cc1c(CNC(=O)N2CC(OC(C)C)C2)ccc(-c2ccnc(Nc3cnn(C)c3)n2)c1F`, the solubility kinetic in data set [1] and in data set [11] was > 10 µg/mL throughout.
As to `CC(C)OC1CN(C(=O)NCc2ccc(-c3ccnc(Nc4cnn(C)c4)n3)cc2C(F)(F)F)C1`, the solubility kinetic in data set [1] and in [11] was < 10 µg/mL each time.
Regarding `CN1CC[C@@H](NC(=O)c2cn(C(C)(C)C)nn2)c2ccc(-c3ccnc(Nc4cnn(C)c4)n3)cc2C1`, the solubility kinetic in data set [1] and in data set [3] was > 50 µg/mL each time. Besides, in data set [2], the fraction unbound at 2 µM is 0.19. In [7], this molecule had an IC50 of 0.8 nM. Further, the pKa in data set [6] is 4. Further, the logD in data set [5] is 1.
Consider `CC(C)OC1CN(C(=O)N[C@@H]2CCCCc3cc(-c4ccnc(Nc5cnn(C)c5)n4)ccc32)C1`, for which the solubility kinetic in data set [8] and in [3] was > 30 µg/mL in each case. Moreover, the bioavailability in [13] was 69%; in data set [16] it was 92%. Also, the Vd in data set [14] was 0.6 L/kg; in data set [24] it was 1.6 L/kg. Also, the values for the solubility in data set [15], in [18] and in data set [19] were 170 µg/mL (≈ 357 µM), > 15000 µg/mL and 80 µg/mL (≈ 168 µM), respectively. The QH in data set [17] is on record as 11%; in [23] it was 31%. For the same molecule, the half-life in [9] was 2.4 h; in data set [10] it was 1.3 h. For the same molecule, the free fraction (fraction unbound) at 2 µM in data set [2] stood at 0.07. Besides, the AUC in [20] is 14200 ng·h/mL; in [26], 6940 ng·h/mL. Besides, the values for the clearance in [21] and in [27] were 4 mL/min/kg and 6 mL/min/kg, respectively. Besides, the Cmax in data set [22] amounted to 3710 ng/mL; in data set [25], 2460 ng/mL. The molecule also returned a logD in [5] of 3.6.
For `Cn1cc(Nc2nccc(-c3ccc4c(c3)CCNC[C@H]4NC(=O)c3cn(C(C)(C)C)nn3)n2)cn1`, the solubility kinetic in [1] and in [3] was > 50 µg/mL throughout. Further, in [2], the fraction unbound at 2 µM came out at 0.12. The molecule further gave a logD in data set [5] of 2.3.
Consider `CC(C)OC1CN(C(=O)NC2CCCc3cc(-c4ccnc(Nc5cnn(C)c5)n4)ccc32)C1` (stereo unspecified), for which the solubility kinetic in [1] and in [11] was > 30 µg/mL in each case.
With `Cn1cc(Nc2nccc(-c3ccc4c(c3)CCCC[C@H]4NC(=O)c3cn(C(C)(C)C)nn3)n2)cn1`, the results for the IC50 at Cytochrome P450 3A4 and against Cytochrome P450 2C9 were 6400 nM and 2000 nM, respectively. Further, the solubility kinetic in data set [1] was < 20 µg/mL; in data set [3], > 50 µg/mL. In addition, the unbound share (fraction unbound) at 2 µM in data set [2] came to 0.011; in data set [4], 0.002. Further, the logD in data set [5] came out at 3.5.
